From PMC11481913, “Rational design of a flavoenzyme for aerobic nicotine catabolism” (mBio, 2024) come the findings set out here.

Each structure is given as a SMILES string.

The assay has as its target T1, Pnao (Pseudomonas putida, UniProt F8G0P1).
T1 construct: dimer
Nature of the assay: FAD reduction at […] nm (stopped-flow); FAD-binding ratio by HPLC. As to conditions: FAD co-purified with the enzyme.

T1 sequence (F8G0P1 whole entry): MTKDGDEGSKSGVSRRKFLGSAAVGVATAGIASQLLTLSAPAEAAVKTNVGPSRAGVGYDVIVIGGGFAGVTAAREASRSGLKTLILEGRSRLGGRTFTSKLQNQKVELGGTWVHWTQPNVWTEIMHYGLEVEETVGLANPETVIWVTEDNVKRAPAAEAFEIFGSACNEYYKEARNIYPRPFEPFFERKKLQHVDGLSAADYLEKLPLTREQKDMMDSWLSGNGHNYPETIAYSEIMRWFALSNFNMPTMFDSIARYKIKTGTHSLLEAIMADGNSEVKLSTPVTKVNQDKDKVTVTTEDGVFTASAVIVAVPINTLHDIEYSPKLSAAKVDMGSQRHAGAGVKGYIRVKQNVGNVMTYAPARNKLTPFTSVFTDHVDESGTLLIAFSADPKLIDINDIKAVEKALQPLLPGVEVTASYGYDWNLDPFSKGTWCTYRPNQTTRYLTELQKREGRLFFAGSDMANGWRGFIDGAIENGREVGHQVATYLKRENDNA

As for `Cc1cc2nc3c(=O)[nH]c(=O)nc-3n(C[C@H](O)[C@H](O)[C@H](O)COP(=O)(O)OP(=O)(O)OC[C@H]3O[C@@H](n4cnc5c(N)ncnc54)[C@H](O)[C@@H]3O)c2cc1C` [FAD, flavin adenine dinucleotide], the “FAD reduction at 450 nm (stopped-flow); FAD-binding ratio by HPLC” value is on record as “the enzyme-bound FAD is transformed from the oxidized to the hydroquinone”.
